The record followed here is ChEMBL document CHEMBL1201862, “PubChem BioAssay data set” (2004).

SMILES strings stand for the structures.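 In this assay, cells in 96-well plates receive the compound at five concentrations for 48 hours. Endpoints are linearly interpolated between the surrounding concentrations. The concentration for 50% growth inhibition is given as GI50.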 Calls of active or inactive are those of the source. Rule as the data show it: active = GI50 up to about 1.1 µM and inactive = higher.

Holding throughout (test): NCI tumour cell line growth inhibition, 48 h
Assay [1] concerns IGROV-1.
Assay [2] deals with HCC 2998.
In assay [3] the test system is HOP-92.
For assay [4], the system named is NCI-H23.
In assay [5] the test system is SF-268.
Assay [6] concerns SK-MEL-5.
Assay [7] relates to BT-549.
Assay [8] deals with OVCAR-4.
Assay [9] relates to SK-MEL-2.
Assay [10] concerns DU-145.
Assay [11] relates to MCF7.
The test system of assay [12] is CAKI-1.
For assay [13], the system named is RXF 393.
Assay [14] concerns SR.
The test system of assay [15] is HL-60.
The subject of assay [16] is T47D.
Assay [17] deals with HOP-62.
The subject of assay [18] is MDA-MB-435.
Assay [19] deals with LOX IMVI.
In assay [20] the test system is CCRF-CEM.

On to `Clc1cc(OCc2nn3c(Cc4ccccc4)nnc3s2)ccc1OCc1nn2c(Cc3ccccc3)nnc2s1`, for which the GI50 in assay [1] was 30.6 µM (inactive); in [2], 44.1 µM (inactive); in [3], 17.3 µM (inactive); in [4] it was 38.9 µM (inactive); in assay [5], 29.8 µM (inactive); in assay [6] it was 25.4 µM (inactive). Besides, the GI50 in assay [7] was 25.8 µM (inactive); in assay [8], 19.4 µM (inactive); in [9], > 100 µM (inactive); in assay [10], 29.6 µM (inactive); in [11], 50.4 µM (inactive); in assay [12], 21.1 µM (inactive). Besides, the GI50 was 27.7 µM (inactive) in assay [13]; 35 µM (inactive) in assay [14]; 50.2 µM (inactive) in assay [15]; 20.9 µM (inactive) in assay [16]; 31.8 µM (inactive) in [17]; 51.6 µM (inactive) in [18]. Besides, the GI50 in assay [19] is 93.8 µM (inactive).
As for `N#Cc1c(N2CCCC2)nsc1NCc1ccccc1`, the GI50 in assay [1] was > 100 µM (inactive); in assay [2] it was > 100 µM (inactive); in assay [3], 54.1 µM (inactive); in assay [4] it was > 100 µM (inactive); in [20] it was > 100 µM (inactive); in [5] it was > 100 µM (inactive). In addition, the GI50 in [6], in assay [7], in [8], in assay [9], in assay [10] and in [11] was > 100 µM (inactive) in each case. Moreover, the GI50 in [12] was > 100 µM (inactive); in [13], 15 µM (inactive); in [14], > 100 µM (inactive); in [15], > 100 µM (inactive); in assay [16] it was 74.6 µM (inactive); in assay [17], > 100 µM (inactive). Moreover, the GI50 in assay [18] and in assay [19] was > 100 µM (inactive) in each case.
Consider `O=c1ccc2c(Cl)cccc2o1`, for which the GI50 in [1] was > 100 µM (inactive); in [2], 3.74 µM (inactive); in assay [3], > 100 µM (inactive); in [4], > 100 µM (inactive); in [20], > 100 µM (inactive); in assay [5], > 100 µM (inactive). The GI50 in assay [6], in assay [7], in [8], in assay [9], in assay [10] and in assay [11] was > 100 µM (inactive) in each case. In addition, the GI50 in assay [12] is > 100 µM (inactive); in [13], > 100 µM (inactive); in assay [14], > 100 µM (inactive); in [15], > 100 µM (inactive); in assay [16], 46.7 µM (inactive); in assay [17] it was > 100 µM (inactive). For the same compound, the GI50 in [18] and in assay [19] was > 100 µM (inactive) in each case.
Regarding `[O-]c1c2cc(-[n+]3c(-c4ccccc4)cc(-c4ccccc4)cc3-c3ccccc3)cc1CO[C@@H](c1ccccc1)[C@H](c1ccccc1)OCCOCCO[C@@H](c1ccccc1)[C@H](c1ccccc1)OC2`, the GI50 in assay [1] was 0.0455 µM (active); in assay [2], 0.181 µM (active); in assay [3], 0.0857 µM (active); in assay [4], 0.0574 µM (active); in assay [20], 0.048 µM (active); in assay [5] it was 0.0635 µM (active). Also, the GI50 in [6] was 0.03 µM (active); in assay [7], 0.0356 µM (active); in assay [8], 0.107 µM (active); in assay [9], 0.0394 µM (active); in assay [10], 0.284 µM (active); in [11], 0.0382 µM (active). In addition, the GI50 in [12] was 0.335 µM (active); in [13], 0.108 µM (active); in [14], 0.0309 µM (active); in [15], 0.0204 µM (active); in [16], 0.0344 µM (active); in [17], 0.129 µM (active). For the same compound, the GI50 is 0.049 µM (active) in assay [18] and 0.0577 µM (active) in assay [19].
Turning to `O=C(c1cc2c(c3ccccc13)NC1(CCCCC1)N=C2C(F)(F)F)C(F)(F)F`, the GI50 is 4.93 µM (inactive) in [1]; 2.29 µM (inactive) in assay [2]; 3.69 µM (inactive) in [3]; 3.83 µM (inactive) in [4]; 3.39 µM (inactive) in assay [20]; 5.85 µM (inactive) in assay [5]. Besides, the GI50 in [6] was 5.74 µM (inactive); in assay [7], 4.37 µM (inactive); in assay [8], 3.73 µM (inactive); in [9] it was 2.44 µM (inactive); in assay [10], 5.35 µM (inactive); in assay [11], 3.63 µM (inactive). For the same compound, the GI50 in assay [12] is 3.35 µM (inactive); in assay [13], 3.66 µM (inactive); in assay [14], 3.6 µM (inactive); in assay [15] it was 2.9 µM (inactive); in assay [16], 2.93 µM (inactive); in assay [17], 40.5 µM (inactive). The GI50 in assay [18] was 3.23 µM (inactive); in assay [19], 3.33 µM (inactive).
In the case of `COc1ccc2nc3n(c2c1)C(c1c(F)cccc1Cl)SC3` (configuration not stated), the GI50 in assay [1] was > 100 µM (inactive); in assay [2], > 100 µM (inactive); in assay [3] it was 41.8 µM (inactive); in assay [4], > 100 µM (inactive); in assay [20], > 100 µM (inactive); in [6], > 100 µM (inactive). For the same compound, the GI50 in assay [7], in assay [8], in [9], in [10], in assay [11] and in [12] was > 100 µM (inactive) in each case. Besides, the GI50 in [13] is > 100 µM (inactive); in [14] it was > 100 µM (inactive); in [15], 9.31 µM (inactive); in assay [16], > 100 µM (inactive); in [17] it was > 100 µM (inactive); in assay [18], > 100 µM (inactive). In assay [19], the GI50 is > 100 µM (inactive).
Take `CCOP(=O)(O)C(Nc1ccc(/N=N/c2ccccc2)cc1)c1cccc(C(Nc2ccc(/N=N/c3ccccc3)cc2)P(=O)(O)OCC)c1` (configuration not stated): the GI50 was 56.5 µM (inactive) in assay [1]; 25.2 µM (inactive) in assay [2]; 41.4 µM (inactive) in assay [3]; 71.1 µM (inactive) in assay [4]; 15.5 µM (inactive) in [20]; 69.8 µM (inactive) in assay [5]. For the same compound, the GI50 in assay [6] is 45.1 µM (inactive); in [7], 45.2 µM (inactive); in assay [8], 47.2 µM (inactive); in [9], 45.2 µM (inactive); in [10], 80.9 µM (inactive); in [11], 35.2 µM (inactive). Besides, the GI50 in assay [12] is 66.1 µM (inactive); in [13], 75.5 µM (inactive); in assay [14], 31.3 µM (inactive); in [15], 22.1 µM (inactive); in assay [16], 18.4 µM (inactive); in assay [17] it was 25.3 µM (inactive). Moreover, the GI50 is 58.7 µM (inactive) in [18] and 19.9 µM (inactive) in [19].
Regarding `COc1c(OC)c(OC)c2c(=O)cc(-c3ccc(OC(C)C)cc3)oc2c1OC`, the GI50 in assay [1] was > 42.6 µM (inactive); in assay [2] it was 28.4 µM (inactive); in assay [3], 8.17 µM (inactive); in assay [4], 27.6 µM (inactive); in [20], 6.37 µM (inactive); in [5], > 35.9 µM (inactive). In addition, the GI50 in assay [6] was 8.97 µM (inactive); in assay [7], 16.7 µM (inactive); in assay [8], 16.5 µM (inactive); in [9] it was 20.8 µM (inactive); in assay [10] it was 26.1 µM (inactive); in assay [11], 18.3 µM (inactive). The GI50 is 20.5 µM (inactive) in [12]; > 33.5 µM (inactive) in [13]; 0.369 µM (active) in assay [14]; 2.07 µM (inactive) in [15]; 7.03 µM (inactive) in [16]; 18.5 µM (inactive) in assay [17]. Also, the results for the GI50 in assay [18] and in assay [19] were 26 µM (inactive) and 27.5 µM (inactive), respectively.
As for `O=C(O)CCSC(=S)Nc1ccc([N+](=O)[O-])cc1`, the GI50 is 42.9 µM (inactive) in [1]; > 89.9 µM (inactive) in assay [2]; 29.9 µM (inactive) in assay [3]; > 66.7 µM (inactive) in assay [4]; 23.7 µM (inactive) in assay [20]; 34.5 µM (inactive) in [5]. Moreover, the GI50 is 20.3 µM (inactive) in assay [6]; 36.2 µM (inactive) in assay [7]; > 56.5 µM (inactive) in assay [8]; > 61.4 µM (inactive) in assay [9]; 43.6 µM (inactive) in [10]; 40.1 µM (inactive) in assay [11]. Besides, the GI50 in assay [12] was > 100 µM (inactive); in assay [13], > 60.8 µM (inactive); in assay [14], 11.7 µM (inactive); in assay [15], 20.8 µM (inactive); in assay [16] it was 31.3 µM (inactive); in [17], > 94.2 µM (inactive). Also, the GI50 is 24.4 µM (inactive) in assay [18] and 31.9 µM (inactive) in assay [19].
In the case of `CCC(O)c1ccc(/N=C/c2ccccc2O)cc1` (configuration not stated), the GI50 in assay [1], in [2], in [3], in assay [4], in assay [5] and in [6] was > 100 µM (inactive) in each case. Also, the GI50 in [7], in assay [8], in assay [9], in assay [10], in assay [11] and in [12] was > 100 µM (inactive) in each case. Besides, the GI50 in assay [13] was > 100 µM (inactive); in assay [14] it was 90.2 µM (inactive); in assay [15] it was > 100 µM (inactive); in assay [16], 8.97 µM (inactive); in assay [17] it was > 100 µM (inactive); in [18], > 100 µM (inactive). Besides, in assay [19], the GI50 was > 100 µM (inactive).
